# Test results: patent US10227349B2, “Pyrazolo[1,5-a]pyrimidine compound” (Eisai R&D Management Co., Ltd., priority 2016, dated 2019)
# Assays:
# PAR2 = target: T1, PAR2 (Mus musculus, UniProt P55086); assay: Measurement of PAR2 agonist (SLIGRL-NH2)-induced salivation in mouse; format: in vivo; details: C57BL/6J male mice, 0.3 mg/mL solution 10 mL/kg orally, 60 min before SLIGRL-NH2 i.p., saliva collected 10 min
# T1 construct: orally administered to C57BL/6J male mice (Charles River), 6-10 weeks of age; tissue Charles River; host or cells: Living C57BL/6J male mice (in vivo; saliva secretion)
# T1 sequence (P55086 26-399): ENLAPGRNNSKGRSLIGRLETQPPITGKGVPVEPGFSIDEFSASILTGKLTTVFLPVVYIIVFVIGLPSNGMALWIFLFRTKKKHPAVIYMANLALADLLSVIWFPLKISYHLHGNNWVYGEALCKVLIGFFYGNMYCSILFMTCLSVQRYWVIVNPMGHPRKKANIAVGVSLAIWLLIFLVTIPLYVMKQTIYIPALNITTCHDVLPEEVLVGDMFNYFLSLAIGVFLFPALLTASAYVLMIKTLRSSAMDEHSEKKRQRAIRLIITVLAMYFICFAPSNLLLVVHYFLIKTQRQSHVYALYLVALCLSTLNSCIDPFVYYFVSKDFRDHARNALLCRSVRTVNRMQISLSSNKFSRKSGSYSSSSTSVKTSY
# Procedure: The test compound was added to a 0.5% carboxymethyl cellulose solution to which 2% DMSO was added, so as to have the final concentration of 0.3 mg/mL, thereby preparing an administration solution containing the test compound. The administration solution containing the test compound (10 mL/kg) was orally administered to C57BL/6J male mice (Charles River), 6-10 weeks of age, using an oral sonde and a syringe. Forty-five minutes after the administration of the test compound, 10 mL/kg of a 20% (w/v) urethane solution was intraperitoneal administered to the mice which were then anesthetized. Sixty minutes after the administration of the test compound, 10 mL/kg of a 0.1 mg/mL SLIGRL-NH2 (SEQ ID NO: 2) solution was intraperitoneally administered as the PAR2 agonist and a cotton ball was immediately placed in the oral cavity of the mouse to collect the saliva. Ten minutes after the administration of the PAR2 agonist, the cotton ball was removed and weighed to measure the amount of saliva secreted.
# Note that Reference Example 1 in Table 4 is Compound (XIX). Additionally, Comparative Compound in Table 4 is Compound (XX).
# [1] = test system: mite antigen-induced dermatitis in NC/NgaTndCrlj mice; assay: Model for mite antigen-induced atopic dermatitis (dermatitis score); format: in vivo, mouse; set-up: key: sum of 5 findings, each 0 = none, 1 mild, 2 moderate, 3 severe
# Procedure: A 4 w/v % SDS solution (0.15 mL/mouse) was first applied to the dorsal region and auricle region of 8-week old male NC/NgaTndCrlj mice (Charles River Laboratories Japan, Inc.) under isoflurane inhalation anesthesia. About 3 hours after the application of the 4 w/v % SDS solution (0.15 mL/mouse), a 1 mL-polypropylene disposable syringe (Terumo Corporation) was filled with Bio stir AD (Biostir Inc.) as a mite antigen ointment which was applied to the dorsal region and auricle region (0.1 mL/mouse). Every 2 or 3 days, the 4 w/v % SDS solution (0.15 mL/mouse) and Biostir AD were applied to a total of 8 times including the initial application by the same method to induce dermatitis. After inducing the dermatitis, the conditions of the skin at the application sites (assessments other than itching behavior) were observed and the dermatitis findings 1) to 5) described below were scored based on the evaluation criteria for the clinical symptoms of human atopic dermatitis. Note that the scoring of the dermatitis findings 1) to 5) has 0 for no symptom, 1 for mild, 2 for moderate and 3 for severe. The dermatitis score of each individual is the total of the dermatitis findings 1) to 5). Grouping (15 mice per group) was carried out randomly so that each group had substantially the same (no statistically significant difference) average dermatitis score (total) and average body weight. For 14 days from the day on which the grouping was carried out, an administration solution containing the test compound (10 mL/kg) was orally administered to the mouse once a day (14 times in total). The administration solution was a 0.5% carboxymethyl cellulose solution containing 10 mmol/L sodium hydroxide and made up into three types of solution having test compound concentrations of 0.3, 1 or 3 mg/mL.
# [2] = test system: tape stripping-induced skin barrier disruption in Hos: HR-1 mice; assay: Mouse model of skin barrier disruption induced by tape stripping (TEWL); format: in vivo; details: TEWL 0 and 1 hour after stripping, average ± standard deviation, n=10
# Procedure: The effect of the test compounds on the skin barrier functions was evaluated using a model with skin barrier disruption induced by tape stripping. Trans-epidermal water loss (TEWL) is an evaluation indicator of the skin barrier functions (Journal of Investigative Dermatology, 126, p 2074-2086 (2006)).
# Seven-week old male Hos: HR-1 mice (Hoshino Laboratory Animals, Inc.) were subjected to the test (n=10 for each treatment). For oral administration, solutions of test compounds with different concentrations were prepared as follows. […]
# (2) The solution of the test compound prepared in (1) was diluted with a 0.5% methylcellulose solution to prepare a solution of the test compound so that the concentration of the test compound was 0.3 mg/mL. TEWL was measured before the test compound was administered (termed as TEWL [pre]). After the TEWL [pre] was measured, the solution of the test compound adjusted as in (1) or (2) was administered orally (dose: 10 mL/kg). […] TEWL immediately after and 1 hour after the tape stripping were measured (termed as TEWL [0 hour], TEWL [1 hour], respectively), % Barrier recovery was calculated in accordance with the following formula. % Barrier Recovery={(TEWL [0 hour]−TEWL [1 hour])/(TEWL [0 hour]−TEWL [pre])}*100
# The result was expressed as the average ± standard deviation of the % barrier recovery. […]
Structure (SMILES),Inhibitory activity on the PAR2-dependent saliva secretion (%) (PAR2),"Dermatitis score (total of findings 1 to 5) ([1]; 3 mg/kg orally once a day, 4 days after starting administration)","Dermatitis score (total of findings 1 to 5) ([1]; 3 mg/kg orally once a day, 7 days after starting administration)","Dermatitis score (total of findings 1 to 5) ([1]; 3 mg/kg orally once a day, 11 days after starting administration)","Dermatitis score (total of findings 1 to 5) ([1]; 3 mg/kg orally once a day, 14 days after starting administration)","Dermatitis score (total of findings 1 to 5) ([1]; 3 mg/kg orally once a day, day 0 (day of grouping))","Dermatitis score (total of findings 1 to 5) ([1]; 10 mg/kg orally once a day, 4 days after starting administration)","Dermatitis score (total of findings 1 to 5) ([1]; 10 mg/kg orally once a day, 7 days after starting administration)","Dermatitis score (total of findings 1 to 5) ([1]; 10 mg/kg orally once a day, 11 days after starting administration)","Dermatitis score (total of findings 1 to 5) ([1]; 10 mg/kg orally once a day, 14 days after starting administration)","Dermatitis score (total of findings 1 to 5) ([1]; 10 mg/kg orally once a day, day 0 (day of grouping))","Dermatitis score (total of findings 1 to 5) ([1]; 30 mg/kg orally once a day, 4 days after starting administration)","Dermatitis score (total of findings 1 to 5) ([1]; 30 mg/kg orally once a day, 7 days after starting administration)","Dermatitis score (total of findings 1 to 5) ([1]; 30 mg/kg orally once a day, 11 days after starting administration)","Dermatitis score (total of findings 1 to 5) ([1]; 30 mg/kg orally once a day, 14 days after starting administration)","Dermatitis score (total of findings 1 to 5) ([1]; 30 mg/kg orally once a day, day 0 (day of grouping))",% Barrier recovery ([2]; 3 mg/kg orally 1 hour before tape stripping),"% Barrier recovery ([2]; 10 mg/kg orally 1 hour before tape stripping, p < 0.05 versus Vehicle)"
"C[C@@H](c1ccccc1)N(C)c1cc(-c2cc(F)c(F)c(F)c2)nc2cc(C(=O)N3CCC(CC(=O)O)CC3)nn12 [Reference Example 1, (S)-2-(1-(7-(methyl(1-phenylethyl)amino)-5-(3,4,5-trifluorophenyl)pyrazolo[1,5-a]pyrimidine-2-carbonyl)piperidin-4-yl)acetic acid, reference compound]",95.9%,–,–,–,–,–,–,–,–,–,–,–,–,–,–,–,–,–
"CO[C@H]1CN(C(=O)c2cc3nc(-c4cc(F)c(Cl)c(F)c4)cc(N(C)c4c(C)cccc4F)n3n2)CC[C@H]1CC(=O)O [Example 10, 2-((3R,4S)-1-(5-(4-chloro-3,5-difluorophenyl)-7-((2-fluoro-6-methylphenyl)(methyl)amino)pyrazolo[1,5-a]pyrimidine-2-carbonyl)-3-methoxypiperidin-4-yl)acetic acid]",92.2%,9.1 ± 0.5,8.6 ± 0.7,6.7 ± 0.7,5.4 ± 0.7,9.7 ± 0.5,8.6 ± 0.9,7.7 ± 0.8,7.1 ± 1.0,5.9 ± 0.9,9.3 ± 0.6,8.7 ± 0.7,7.8 ± 0.8,6.5 ± 0.8,5.0 ± 0.8,9.3 ± 0.6,24.2 ± 8.1%,53.5 ± 4.9 %
